According to ChEMBL document CHEMBL1201862, “PubChem BioAssay data set” (2004):
Several values for one entry are separate records, joined by “and”; a condition that tells them apart may be missing. Identical values can stand only once. One block for each compound: values may come before it. Activity calls are given as the source filed them.

Experiments:
Cytochrome P450 2C19 = Cytochrome P450 2C19 (Homo sapiens, UniProt P33261); assay: Cytochrome panel assay with activity outcomes. Panel member name: p450-cyp2c19 Compounds with AC50 equal or less than 10 uM are considered active; format: functional; conditions: read-out: AC50
[1] = biological target: DNA dC->dU-editing enzyme APOBEC-3G (Homo sapiens, UniProt Q9HC16); assay: Dose Response confirmation of small molecule APOBEC3G DNA Deaminase Inhibitors via a fluorescence-based single-stranded DNA deaminase assay. [Related pubchem assays (depositor defined):AID493012, AID493028]; format: functional
Caspase-6 = biological target: T1, Caspase-6 (Homo sapiens, UniProt P55212); assay: inhibition of CASP6 peptide cleavage – biochemical, VEID-R110 fluorescence, cherry-pick, dose response (AID 720632)
T1 sequence (P55212 whole entry): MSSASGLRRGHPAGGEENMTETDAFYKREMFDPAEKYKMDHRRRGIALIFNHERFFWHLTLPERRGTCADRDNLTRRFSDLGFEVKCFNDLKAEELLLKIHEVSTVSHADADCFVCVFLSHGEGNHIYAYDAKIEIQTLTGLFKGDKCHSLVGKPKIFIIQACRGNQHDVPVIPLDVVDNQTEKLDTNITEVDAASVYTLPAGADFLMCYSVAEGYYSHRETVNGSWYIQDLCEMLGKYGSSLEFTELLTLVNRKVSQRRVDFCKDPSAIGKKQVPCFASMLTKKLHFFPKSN

[2] = biological target: Intestinal-type alkaline phosphatase (Mus musculus, UniProt P24822); assay: PubChem AID 488785; format: functional
Cytochrome P450 3A4 [3] = biological target: T2, Cytochrome P450 3A4 (Homo sapiens, UniProt P08684)
Cytochrome P450 3A4 [4] = biological target: T2, Cytochrome P450 3A4; conditions: Potency
[5] = biological target: T3, Alkaline phosphatase, tissue-nonspecific isozyme (Homo sapiens, UniProt P05186); assay: TNAP enzyme inhibition by screening hits, dose response, selectivity assay for mouse IAP inhibitor project, biochemical, human TNAP, uHTS hits (AID 488906); format: functional
T3 sequence (P05186 whole entry): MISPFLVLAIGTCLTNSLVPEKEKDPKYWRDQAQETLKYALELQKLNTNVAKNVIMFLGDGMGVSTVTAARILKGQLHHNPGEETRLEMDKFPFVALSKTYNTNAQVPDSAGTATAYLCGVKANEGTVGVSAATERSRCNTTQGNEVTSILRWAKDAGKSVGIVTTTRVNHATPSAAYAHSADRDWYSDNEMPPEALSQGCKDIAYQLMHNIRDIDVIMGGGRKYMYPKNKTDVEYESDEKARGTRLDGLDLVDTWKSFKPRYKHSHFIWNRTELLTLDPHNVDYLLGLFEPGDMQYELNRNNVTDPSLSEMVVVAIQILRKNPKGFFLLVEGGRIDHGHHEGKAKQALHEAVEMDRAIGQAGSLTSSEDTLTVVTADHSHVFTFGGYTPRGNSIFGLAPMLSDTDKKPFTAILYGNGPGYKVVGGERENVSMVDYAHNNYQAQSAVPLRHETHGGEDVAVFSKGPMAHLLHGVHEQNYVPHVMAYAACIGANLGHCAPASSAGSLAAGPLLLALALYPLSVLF

[6] = biological target: Dual specificity tyrosine-phosphorylation-regulated kinase 1A (Rattus norvegicus, UniProt Q63470); format: biochemical, Homo sapiens
HEK293 [7] = assay: NOD2 signaling inhibitors in MDP-stimulated cells, cell-based, uHTS, luminescence (AID 2001); format: functional; conditions: Homo sapiens
Tumor necrosis factor = Tumor necrosis factor (Homo sapiens, UniProt P01375); assay: analog potency on TNFa NF-kB signaling – cell-based, revised, SAR follow-up (AID 2337); format: functional
HEK293 [8] = assay: cells; conditions: Homo sapiens
[9] = biological target: T4, Nucleotide-binding oligomerization domain-containing protein 1 (Homo sapiens, UniProt Q9Y239); assay: blockers of NOD1 pathway activity – revised, SAR follow-up (AID 2333); format: functional
T4 sequence (Q9Y239 whole entry): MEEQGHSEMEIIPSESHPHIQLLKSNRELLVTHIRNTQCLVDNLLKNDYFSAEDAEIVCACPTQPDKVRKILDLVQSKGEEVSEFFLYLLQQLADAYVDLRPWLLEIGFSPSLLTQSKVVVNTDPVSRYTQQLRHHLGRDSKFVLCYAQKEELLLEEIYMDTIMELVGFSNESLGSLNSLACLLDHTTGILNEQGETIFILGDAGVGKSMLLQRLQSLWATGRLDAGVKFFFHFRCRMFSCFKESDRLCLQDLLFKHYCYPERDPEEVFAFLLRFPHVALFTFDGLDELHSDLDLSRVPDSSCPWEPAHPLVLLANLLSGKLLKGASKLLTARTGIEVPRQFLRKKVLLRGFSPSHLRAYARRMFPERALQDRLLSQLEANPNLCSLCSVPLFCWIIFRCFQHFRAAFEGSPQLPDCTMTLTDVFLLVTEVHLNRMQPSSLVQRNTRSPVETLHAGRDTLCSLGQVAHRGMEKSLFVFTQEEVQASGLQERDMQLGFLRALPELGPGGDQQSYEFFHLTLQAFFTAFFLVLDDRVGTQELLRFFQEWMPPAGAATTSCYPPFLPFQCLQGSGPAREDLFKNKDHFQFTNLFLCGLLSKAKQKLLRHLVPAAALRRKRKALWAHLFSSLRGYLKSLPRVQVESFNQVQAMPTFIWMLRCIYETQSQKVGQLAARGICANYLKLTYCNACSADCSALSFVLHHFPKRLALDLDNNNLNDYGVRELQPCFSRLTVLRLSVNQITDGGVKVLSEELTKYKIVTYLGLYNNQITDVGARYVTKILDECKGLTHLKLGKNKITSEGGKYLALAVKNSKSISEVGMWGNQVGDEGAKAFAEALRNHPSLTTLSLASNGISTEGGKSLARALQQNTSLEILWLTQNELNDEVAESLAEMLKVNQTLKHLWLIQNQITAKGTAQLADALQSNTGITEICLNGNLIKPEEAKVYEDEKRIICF

HEK293 [10] = assay: inhibition of NOD1-driven NF-kB reporter – cell-based, luminescence, uHTS, primary screen (AID 1578); format: functional; conditions: Homo sapiens
HEK293 [11] = assay: cells; format: functional, cell-based; conditions: Homo sapiens
HEK293 [12] = assay: cells; format: functional, cell-based; conditions: Homo sapiens; remark: listed apart in the source
[13] = biological target: Nucleotide-binding oligomerization domain-containing protein 2 (Homo sapiens, UniProt Q9HC29); assay: inhibition of NOD2-driven NF-kB reporter – cell-based, luminescence, uHTS, HEK293 (AID 1566); format: functional
HEK293 [14] = assay: cells; format: functional, cell-based; conditions: Homo sapiens; remark: listed apart in the source
Beta-galactosidase = Beta-galactosidase (Escherichia coli, UniProt Q8VNN2); assay: PubChem AID 485352; format: functional
[15] = biological target: T5, Type-1 angiotensin II receptor (Homo sapiens, UniProt P30556); assay: antagonism of angiotensin II type 1 receptor – cell-based, uHTS hits, selectivity assay for APJ receptor antagonist project, dose response (AID 463214); format: functional;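 note: antagonist potency against angiotensin II stimulated AT1 response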
T5 sequence (P30556 whole entry): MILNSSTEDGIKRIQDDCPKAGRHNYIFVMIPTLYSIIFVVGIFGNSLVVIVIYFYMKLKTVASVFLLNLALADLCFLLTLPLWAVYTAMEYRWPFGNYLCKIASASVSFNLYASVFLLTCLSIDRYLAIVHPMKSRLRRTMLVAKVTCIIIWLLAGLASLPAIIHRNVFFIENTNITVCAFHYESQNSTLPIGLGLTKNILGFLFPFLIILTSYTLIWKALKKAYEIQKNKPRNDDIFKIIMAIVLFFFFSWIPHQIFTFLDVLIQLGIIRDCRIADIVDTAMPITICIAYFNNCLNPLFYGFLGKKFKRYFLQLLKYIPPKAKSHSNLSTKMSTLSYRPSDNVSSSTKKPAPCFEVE

Chain of Nucleotide-binding oligomerization domain-containing protein 2 (Q9HC29 whole entry, the tested form may be a part): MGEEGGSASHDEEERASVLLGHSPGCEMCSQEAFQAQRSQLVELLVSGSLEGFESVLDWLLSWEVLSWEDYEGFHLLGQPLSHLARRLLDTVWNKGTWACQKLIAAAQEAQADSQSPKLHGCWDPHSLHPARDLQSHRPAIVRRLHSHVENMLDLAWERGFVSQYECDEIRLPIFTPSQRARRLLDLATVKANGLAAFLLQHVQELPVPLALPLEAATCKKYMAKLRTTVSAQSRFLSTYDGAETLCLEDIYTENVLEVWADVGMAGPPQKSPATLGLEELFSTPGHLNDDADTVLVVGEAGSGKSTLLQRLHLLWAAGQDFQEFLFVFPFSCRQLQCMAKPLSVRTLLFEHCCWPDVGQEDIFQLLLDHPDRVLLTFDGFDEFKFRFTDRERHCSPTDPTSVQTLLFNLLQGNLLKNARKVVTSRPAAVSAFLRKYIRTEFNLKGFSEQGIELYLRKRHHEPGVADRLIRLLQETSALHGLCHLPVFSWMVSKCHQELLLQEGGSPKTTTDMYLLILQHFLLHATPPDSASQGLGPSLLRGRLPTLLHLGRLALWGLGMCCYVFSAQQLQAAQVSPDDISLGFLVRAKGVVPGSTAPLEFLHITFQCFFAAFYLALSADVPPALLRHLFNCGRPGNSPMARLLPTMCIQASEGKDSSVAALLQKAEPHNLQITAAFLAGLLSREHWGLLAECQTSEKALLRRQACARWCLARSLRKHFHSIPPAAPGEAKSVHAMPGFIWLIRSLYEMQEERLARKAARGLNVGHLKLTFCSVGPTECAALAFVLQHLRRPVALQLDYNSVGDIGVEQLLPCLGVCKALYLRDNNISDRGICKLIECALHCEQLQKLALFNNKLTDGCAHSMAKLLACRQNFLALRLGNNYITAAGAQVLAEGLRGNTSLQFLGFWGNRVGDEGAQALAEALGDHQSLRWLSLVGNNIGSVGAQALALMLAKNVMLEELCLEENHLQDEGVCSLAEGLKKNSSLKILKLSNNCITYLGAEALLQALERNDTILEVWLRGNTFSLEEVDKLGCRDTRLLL
Chain of Cytochrome P450 2C19 (P33261 whole entry): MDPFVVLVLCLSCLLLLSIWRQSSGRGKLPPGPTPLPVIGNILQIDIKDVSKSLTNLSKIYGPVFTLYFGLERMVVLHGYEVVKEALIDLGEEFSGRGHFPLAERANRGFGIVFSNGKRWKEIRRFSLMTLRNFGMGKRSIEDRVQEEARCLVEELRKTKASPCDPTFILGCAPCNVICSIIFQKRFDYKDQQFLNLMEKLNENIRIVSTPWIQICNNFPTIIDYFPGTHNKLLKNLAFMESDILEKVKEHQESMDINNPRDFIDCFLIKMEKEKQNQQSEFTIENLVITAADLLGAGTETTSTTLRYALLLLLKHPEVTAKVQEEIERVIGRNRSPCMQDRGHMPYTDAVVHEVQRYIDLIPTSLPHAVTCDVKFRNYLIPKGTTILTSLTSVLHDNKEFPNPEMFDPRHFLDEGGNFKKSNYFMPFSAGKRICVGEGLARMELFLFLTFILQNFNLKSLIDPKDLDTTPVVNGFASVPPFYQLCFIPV
T2 sequence (P08684 whole entry): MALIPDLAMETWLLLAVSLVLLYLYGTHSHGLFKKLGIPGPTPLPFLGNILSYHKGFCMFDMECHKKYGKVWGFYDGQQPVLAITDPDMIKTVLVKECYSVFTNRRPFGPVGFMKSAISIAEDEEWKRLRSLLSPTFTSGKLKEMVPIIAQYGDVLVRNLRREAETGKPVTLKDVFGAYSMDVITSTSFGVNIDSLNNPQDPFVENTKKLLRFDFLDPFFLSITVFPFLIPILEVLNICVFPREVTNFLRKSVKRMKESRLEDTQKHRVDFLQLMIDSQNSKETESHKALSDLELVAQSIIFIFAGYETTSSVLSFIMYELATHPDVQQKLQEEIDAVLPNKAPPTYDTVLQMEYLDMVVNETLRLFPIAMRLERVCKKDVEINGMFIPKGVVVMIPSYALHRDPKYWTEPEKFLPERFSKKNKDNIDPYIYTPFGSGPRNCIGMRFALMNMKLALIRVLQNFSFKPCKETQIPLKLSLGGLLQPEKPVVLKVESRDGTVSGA
Chain of Beta-galactosidase (Q8VNN2 whole entry): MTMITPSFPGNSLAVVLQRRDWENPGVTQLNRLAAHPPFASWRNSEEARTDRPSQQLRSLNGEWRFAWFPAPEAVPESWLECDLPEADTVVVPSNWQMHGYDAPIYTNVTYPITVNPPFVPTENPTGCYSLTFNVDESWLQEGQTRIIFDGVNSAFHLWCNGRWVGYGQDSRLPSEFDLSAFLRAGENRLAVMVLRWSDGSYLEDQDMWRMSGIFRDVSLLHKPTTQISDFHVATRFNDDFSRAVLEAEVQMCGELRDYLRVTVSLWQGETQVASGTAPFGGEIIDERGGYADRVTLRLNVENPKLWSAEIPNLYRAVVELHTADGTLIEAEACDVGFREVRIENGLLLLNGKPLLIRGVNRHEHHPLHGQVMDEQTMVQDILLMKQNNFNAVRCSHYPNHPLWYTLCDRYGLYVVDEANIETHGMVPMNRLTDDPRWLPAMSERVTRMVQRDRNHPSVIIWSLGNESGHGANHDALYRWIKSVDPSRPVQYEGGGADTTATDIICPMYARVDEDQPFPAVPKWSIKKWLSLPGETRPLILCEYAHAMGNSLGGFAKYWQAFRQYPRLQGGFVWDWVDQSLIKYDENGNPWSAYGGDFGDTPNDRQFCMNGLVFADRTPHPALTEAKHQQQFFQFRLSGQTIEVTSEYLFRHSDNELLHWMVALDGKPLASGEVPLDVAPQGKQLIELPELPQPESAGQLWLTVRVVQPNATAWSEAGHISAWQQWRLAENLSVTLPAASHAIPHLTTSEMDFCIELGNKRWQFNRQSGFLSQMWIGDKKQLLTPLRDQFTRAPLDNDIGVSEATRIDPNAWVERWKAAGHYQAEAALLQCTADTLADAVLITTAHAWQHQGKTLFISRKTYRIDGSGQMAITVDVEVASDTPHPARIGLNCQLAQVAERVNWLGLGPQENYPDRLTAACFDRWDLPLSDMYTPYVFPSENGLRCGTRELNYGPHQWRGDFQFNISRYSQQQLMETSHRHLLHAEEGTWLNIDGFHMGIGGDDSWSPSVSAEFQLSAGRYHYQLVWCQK
Chain of Intestinal-type alkaline phosphatase (P24822 whole entry): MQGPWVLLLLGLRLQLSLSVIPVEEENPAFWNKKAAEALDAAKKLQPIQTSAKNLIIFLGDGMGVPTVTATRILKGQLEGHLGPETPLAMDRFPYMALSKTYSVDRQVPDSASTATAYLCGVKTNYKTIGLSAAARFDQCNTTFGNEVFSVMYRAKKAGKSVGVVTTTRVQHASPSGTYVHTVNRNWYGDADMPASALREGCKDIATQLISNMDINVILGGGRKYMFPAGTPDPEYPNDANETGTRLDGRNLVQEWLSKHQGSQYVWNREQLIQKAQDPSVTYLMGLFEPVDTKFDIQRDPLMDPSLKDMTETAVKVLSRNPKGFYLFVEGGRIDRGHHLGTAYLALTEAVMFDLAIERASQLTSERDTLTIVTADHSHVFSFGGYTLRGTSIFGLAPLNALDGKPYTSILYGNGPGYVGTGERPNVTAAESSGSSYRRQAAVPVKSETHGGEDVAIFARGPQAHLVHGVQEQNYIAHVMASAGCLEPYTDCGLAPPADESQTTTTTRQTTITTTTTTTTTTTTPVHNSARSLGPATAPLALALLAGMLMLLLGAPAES
Chain of DNA dC->dU-editing enzyme APOBEC-3G (Q9HC16 whole entry): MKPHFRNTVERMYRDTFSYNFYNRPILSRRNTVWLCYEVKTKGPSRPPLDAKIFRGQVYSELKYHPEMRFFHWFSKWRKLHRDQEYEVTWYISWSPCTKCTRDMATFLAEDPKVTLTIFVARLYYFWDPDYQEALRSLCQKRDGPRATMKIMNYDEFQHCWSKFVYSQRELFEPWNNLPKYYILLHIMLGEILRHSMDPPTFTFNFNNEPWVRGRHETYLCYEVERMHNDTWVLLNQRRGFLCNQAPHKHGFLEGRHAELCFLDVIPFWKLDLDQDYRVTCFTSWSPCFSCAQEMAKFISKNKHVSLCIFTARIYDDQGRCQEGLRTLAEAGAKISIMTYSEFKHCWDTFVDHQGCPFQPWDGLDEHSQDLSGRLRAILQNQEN
Chain of Tumor necrosis factor (P01375 whole entry): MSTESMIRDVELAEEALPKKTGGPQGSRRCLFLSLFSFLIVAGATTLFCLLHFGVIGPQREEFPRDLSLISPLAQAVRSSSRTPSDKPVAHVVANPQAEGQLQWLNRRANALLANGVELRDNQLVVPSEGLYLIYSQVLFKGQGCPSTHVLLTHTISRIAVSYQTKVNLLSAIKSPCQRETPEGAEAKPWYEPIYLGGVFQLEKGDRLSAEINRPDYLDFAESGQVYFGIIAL

Compound: O=c1c(O)c(-c2cc(O)c(O)c(O)c2)oc2cc(O)cc(O)c12 [MYRICETIN]
AC50 (Cytochrome P450 2C19): 3.98 µM (inconclusive) and 20 µM (inconclusive)
IC50 [1]: 2.39 µM (active)
AC50 (Caspase-6): 0.461 µM (active)
IC50 [2]: 12.5 µM (active)
AC50 (Cytochrome P450 3A4 [3]): 3.98 µM (inconclusive)
AC50 (Cytochrome P450 3A4 [4]): 25.1 µM (inconclusive)
IC50 [5]: 33.2 µM (active)

AC50 [6]: 2.64 µM (active)
Compound: CC(=O)NC12CC3CC(C1)CC(C(=O)Nc1nc4ccc(F)cc4s1)(C3)C2

Compound: Cc1ccc(C(=O)N2CCN(c3ccc(F)cc3)CC2)cc1S(=O)(=O)N1CCCCC1
IC50 (HEK293 [7]): 12.9 µM (inactive)
IC50 (Tumor necrosis factor): 9.82 µM (active)
IC50 (HEK293 [8]): > 20 µM (inactive)
IC50 [9]: 5.07 µM (active)
EC50 (HEK293 [10]): 5.48 µM (active)
IC50 (HEK293 [11]): 11.2 µM (active)
IC50 (HEK293 [12]): > 20 µM (inactive)

Compound: COc1ccc(-n2c(C)c([N+](=O)[O-])c3ccc(O)c(CN4CCCCC4)c32)cc1
EC50 [13]: > 20 µM (inactive)
IC50 (HEK293 [7]): 2.39 µM (active)
IC50 (HEK293 [14]): > 20 µM (inactive)
EC50 (HEK293 [10]): 2.77 µM (active)
IC50 (HEK293 [11]): 2.1 µM (active)
IC50 (HEK293 [12]): > 20 µM (inactive)

EC50 (Beta-galactosidase): > 40 µM (inactive)
IC50 [15]: > 40 µM (not active)
Compound: CC1(C)CC2(CC(c3ccccc3F)c3cc(Cl)c(O)cc3O2)NC(=S)N1 (centres undefined)

Compound: COc1ccc(O)c(-c2[nH]ncc2C(=O)c2ccccc2)c1
EC50 [13]: 14.3 µM (active)
IC50 (HEK293 [7]): 14 µM (inactive)
IC50 (HEK293 [14]): > 20 µM (inactive)
EC50 (HEK293 [10]): 15 µM (active)
IC50 (HEK293 [11]): 9.31 µM (active)
IC50 (HEK293 [12]): > 20 µM (inactive)
